From patent US5292901A, “Benzodioxole derivatives” (Eisai Co., Ltd., priority 1987, dated 1994)

Key:
[1] = Study of plants used as folk medicines for liver trouble remedies; conditions: in words
[2] = test system: liver injury induced by D-galactosamine; assay: Experimental Example 2b: inhibition of liver injury in rats (group I-b), method given as that of Experimental Example 1b; type: in vivo, male Fischer (F344) rats; conditions: Rattus norvegicus, 48 h; Table 2b; compound 100 mg/kg oral in 0.5% methylcellulose; read-out: Inhibition ratio (%) GPT
Procedure: The test was conducted in the same manner as shown in Experimental Example 1b except that the test compound was orally administered to the rats in a dose of 100 mg/kg in 0.5% methylcellulose solution.

[3] = test system: liver injury induced by D-galactosamine; assay: Experimental Example 1b: effect on liver injury induced by D-galactosamine in rats (group I-b); type: in vivo, male Fischer (F344) rats; conditions: Rattus norvegicus, po, 48 h, Table 1b, D-galactosamine 400 mg/kg, compound 100 mg/kg in 0.5% methylcellulose
[4] = read-out: Inhibition ratio (%) GPT
[5] = read-out: Inhibition ratio (%) HPT

Row | Compound | effect as liver trouble remedy [1] | inhibition in vivo at 100 mg/kg [2] [%] | inhibition in vivo at 100 mg/kg [3, 4] [%] | inhibition in vivo at 100 mg/kg [3, 5] [%]
1 | OCCSSSCc1ccccc1 [2-[(phenylmethyl)trithio]ethanol] | effective as liver trouble remedies | – | – | –
2 | NC(=O)CSCCc1ccc2c(c1)OCO2 [Compound 16] | – | 61 | 86 | 94
3 | OC1OCC(Cc2ccc3c(c2)OCO3)C1Cc1ccc2c(c1)OCO2 (centres unmarked) [cubebin] | effective as liver trouble remedies | – | – | –
4 | O=C(O)CCSCCc1ccc2c(c1)OCO2 [Compound 9] | – | 98 | 100 | 99
5 | OCCCSCCc1ccc2c(c1)OCO2 [Compound 4] | – | 93 | 98 | 98
6 | C[S+]([O-])CCc1ccc2c(c1)OCO2 (centres unmarked) [Compound 26] | – | 97 | 100 | 100
7 | O=C(O)CCCCSCCc1ccc2c(c1)OCO2 [Compound 11] | – | 90 | 96 | 98
8 | CC(CC(=O)O)SCCc1ccc2c(c1)OCO2 (centres unmarked) [Compound 13] | – | 86 | 99 | 99
9 | CCOC(=O)CSCCc1ccc2c(c1)OCO2 [Compound 25] | – | 21 | 34 | 61
10 | O=C(O)CCCSCCc1ccc2c(c1)OCO2 [Compound 10] | – | 43 | 89 | 99
